Source: patent publication US20260102359A1, “COMBINATION TREATMENT OF DERMAL AND TRANSDERMAL FIBROTIC DISEASES, DISORDERS AND ASSOCIATED PAIN AND INFLAMMATION” (ERESINA, LLC, priority 2022, published 2026)
Where a name gives a salt, the structure may show the parent alone.

What follows are molecules tested on hDMFa myofibroblast cells.

Structure (SMILES)	Compound Myofibroblast Cytotoxicity Activity
CN(C)CCCN1c2ccccc2CCc2ccccc21 [Cmpd 523, Imipramine (hydrochloride)]	+++
COc1cc2/c(=N/c3ccc(Br)cc3F)nc[nH]c2cc1OCC1CCN(C)CC1 [Cmpd 994, Vandetanib (ZD6474)]	++++
O=C(O)C1=C(CSc2nnnn2CS(=O)(=O)O)CS[C@@H]2[C@H](NC(=O)[C@H](O)c3ccccc3)C(=O)N12 [Cmpd 232, Cefonicid (sodium salt)]	++++
CC(C)N(CCC(C(N)=O)(c1ccccc1)c1ccccn1)C(C)C (centres unmarked) [Cmpd 366, Disopyramide]	++
Nc1ccn([C@H]2CC[C@@H](CO)O2)c(=O)n1 [Cmpd 1024, Zalcitabine]	++++
Clc1ccc(COC(Cn2ccnc2)c2ccc(Cl)cc2Cl)c(Cl)c1 (centres unmarked) [Cmpd 672, Miconazole Nitrate]	+++
CCn1cc(C(=O)O)c(=O)c2cc(F)c(N3CCNCC3)nc21 [Cmpd 416, Enoxacin Sesquihydrate]	++
C=C1CC[C@H](O)C/C1=C/C=C1\CCC[C@]2(C)[C@@H]([C@H](C)/C=C/[C@H](C)C(C)C)CC[C@@H]12 [Cmpd 1008, Vitamin D2 (Ergocalciferol)]	+++
C[C@H]1O[C@H](OC2[C@@H](O)[C@@H](O)C(O)[C@H](O)[C@H]2O)[C@@H](N)C[C@@H]1N=C(N)C(=O)O.Cl (some centres unmarked) [Cmpd 548, Kasugamycin (hydrochloride)]	+++
C[C@]1(OC(=O)/C=C/c2ccccc2)C[C@@H](O)[C@]2(O)C=CO[C@@H](O[C@@H]3O[C@H](CO)[C@@H](O)[C@H](O)[C@H]3O)[C@@H]21 [Cmpd 499, Harpagoside]	++
CNCCC=C1c2ccccc2CCc2ccccc21 [Cmpd 723, Nortriptyline (hydrochloride)]	++
CC1(C)CC(=O)CC(C)(C)N1 [Cmpd 967, Triacetonamine]	++
C=C1CC/C=C(\C)CC[C@@H]2[C@@H]1CC2(C)C [Cmpd 8, β-Caryophyllene]	+++
CC(C)(C(=O)c1cccnc1)c1cccnc1 [Cmpd 667, Metyrapone]	++
CN[C@H]1CC[C@@H](c2ccc(Cl)c(Cl)c2)c2ccccc21 [Cmpd 861, Sertraline HCl]	++++
CCCN1CCCC[C@H]1C(=O)Nc1c(C)cccc1C.CS(=O)(=O)O [Cmpd 840, Ropivacaine Mesilate]	++
COc1cc([C@@H]2c3cc4c(cc3[C@@H](O[C@@H]3O[C@@H]5CO[C@@H](c6cccs6)O[C@H]5[C@H](O)[C@H]3O)[C@H]3COC(=O)[C@H]23)OCO4)cc(OC)c1O [Cmpd 925, Teniposide]	++
CCCCCCCCCCCCCCCC(=O)OC(CC(=O)O)C[N+](C)(C)C.[Cl-] (racemic) [Cmpd 17, (±)-Palmitoylcarnitine chloride]	++
NCCc1ccc(O)cc1 [Cmpd 981, Tyramine]	++
CCOc1cc(CC(=O)N[C@@H](CC(C)C)c2ccccc2N2CCCCC2)ccc1C(=O)O [Cmpd 826, Repaglinide]	+++
CCN(CC)C(=O)C1(c2ccccc2)CC1CN (centres unmarked) [Cmpd 676, Milnacipran HCl]	++++
CCCCCCCCCC(=O)O [Cmpd 212, Caprate (10:0)]	++
CCCCCCCCCC(=O)O [Cmpd 331, Decanoic acid]	+
CC(C)(C)c1ccc(S(=O)(=O)/C=C/C#N)cc1 [Cmpd 157, Bay 11-7085]	+++++
C=C1CC[C@H]2C[C@@H]1C2(C)C [Cmpd 22, (1S)-(-)-β-Pinene]	++
CN(CC(=O)O)C(=N)N.O [Cmpd 295, Creatine monohydrate]	++
